Laboratory results taken from patent US20070142392A1, “Uses of rifamycins” (ActivBiotics, Inc., priority 2005, published 2007).
Values after ≈ are worked out from the molar mass of the structure shown.

Tests used:
Assay type in all cases: cell-based
E. faecalis = assay: MIC values, E. faecalis (Tables 1-4)
E. coli = assay: MIC values, E. coli (Tables 1-4)
S. pneumo. = assay: MIC values, S. pneumo. (Tables 1-4)
S. aureus = assay: MIC values, S. aureus (Tables 1-4)
H. flu = test system: H. flu

Structure (SMILES)	MIC E. faecalis (E. faecalis)	MIC E. coli (E. coli)	MIC S. pneumo. (S. pneumo.)	MIC S. aureus (S. aureus)	MIC H. flu (H. flu)
COC1C=COC2(C)Oc3c(C)c(O)c4c(=O)c(c5oc6cc(N7CC8C(N)C8C7)cc(O)c6nc-5c4c3C2=O)NC(=O)C(C)=CC=CC(C)C(O)C(C)C(O)C(C)C(O)C1C (centres unmarked) [Compound 20]	>8 µg/mL	>8 µg/mL	1 µg/mL (≈ 1.17 µM)	2 µg/mL (≈ 2.34 µM)	>8 µg/mL
COC(=O)NC1CCN(c2cc(O)c3nc4c5c6c7c(C)c(O)c5c(=O)c(c-4oc3c2)NC(=O)/C(C)=C\C=C\[C@H](C)[C@H](O)[C@@H](C)[C@@H](O)[C@@H](C)[C@H](O)[C@H](C)[C@@H](OC)/C=C/O[C@@](C)(O7)C6=O)CC1 [Compound 30]	1 µg/mL (≈ 1.09 µM)	>8 µg/mL	0.002 µg/mL (≈ 0.00219 µM)	0.015 µg/mL (≈ 0.0164 µM)	0.5 µg/mL (≈ 0.546 µM)
CO[C@H]1/C=C/O[C@@]2(C)Oc3c(C)c(O)c4c(=O)c(c5sc6cc(N7C[C@@H](C)N[C@@H](C)C7)ccc6nc-5c4c3C2=O)NC(=O)/C(C)=C\C=C\[C@H](C)[C@H](O)[C@@H](C)[C@@H](O)[C@@H](C)[C@H](OC(C)=O)[C@@H]1C [Compound 64]	0.12 µg/mL (≈ 0.131 µM)	4 µg/mL (≈ 4.38 µM)	0.00012 µg/mL (≈ 0.000131 µM)	0.004 µg/mL (≈ 0.00438 µM)	0.25 µg/mL (≈ 0.274 µM)
CO[C@H]1/C=C/O[C@@]2(C)Oc3c(C)c(O)c4c(=O)c(c5oc6cc(N7CCOCC7)cc(O)c6nc-5c4c3C2=O)NC(=O)/C(C)=C\C=C\[C@H](C)[C@H](O)[C@@H](C)[C@@H](O)[C@@H](C)[C@H](O)[C@@H]1C [Compound 131]	0.06 µg/mL (≈ 0.0711 µM)	>8 µg/mL	0.00025 µg/mL (≈ 0.000296 µM)	0.004 µg/mL (≈ 0.00474 µM)	0.12 µg/mL (≈ 0.142 µM)
COC1C=COC2(C)Oc3c(C)c(O)c4c(=O)c(c5oc6cc(N7CCC(F)C7)ccc6nc-5c4c3C2=O)NC(=O)C(C)=CC=CC(C)C(O)C(C)C(O)C(C)C(O)C1C (mixture of isomers) [Compound 122]	0.5 µg/mL	4 µg/mL	0.015 µg/mL	0.03 µg/mL	0.06 µg/mL
CO[C@H]1/C=C/O[C@@]2(C)Oc3c(C)c(O)c4c(=O)c(c5oc6cc(N7CC8CCC(C7)N8)cc(O)c6nc-5c4c3C2=O)NC(=O)/C(C)=C\C=C\[C@H](C)[C@H](O)[C@@H](C)[C@@H](O)[C@@H](C)[C@H](OC(C)=O)[C@@H]1C [Compound 145]	1 µg/mL (≈ 1.1 µM)	>8 µg/mL	0.00012 µg/mL (≈ 0.000132 µM)	0.008 µg/mL (≈ 0.00878 µM)	2 µg/mL (≈ 2.2 µM)
CCCS(=O)(=O)NC1CCN(c2cc(O)c3nc4c5c6c7c(C)c(O)c5c(=O)c(c-4oc3c2)NC(=O)/C(C)=C\C=C\[C@H](C)[C@H](O)[C@@H](C)[C@@H](O)[C@@H](C)[C@H](OC(C)=O)[C@H](C)[C@@H](OC)/C=C/O[C@@](C)(O7)C6=O)CC1 [Compound 35]	4 µg/mL (≈ 3.98 µM)	8 µg/mL (≈ 7.96 µM)	0.00025 µg/mL (≈ 0.000249 µM)	0.015 µg/mL (≈ 0.0149 µM)	0.5 µg/mL (≈ 0.497 µM)
CO[C@H]1/C=C/O[C@@]2(C)Oc3c(C)c(O)c4c(=O)c(c5oc6cc(N7CCCC7)c(C7CCCCC7)cc6nc-5c4c3C2=O)NC(=O)/C(C)=C\C=C\[C@H](C)[C@H](O)[C@@H](C)[C@@H](O)[C@@H](C)[C@H](O)[C@@H]1C [Compound 118]	>8 µg/mL	>8 µg/mL	0.25 µg/mL (≈ 0.28 µM)	2 µg/mL (≈ 2.24 µM)	8 µg/mL (≈ 8.95 µM)
CO[C@H]1/C=C/O[C@@]2(C)Oc3c(C)c(O)c4c(=O)c(c5oc6cc(N7CCC(N)CC7)cc(O)c6nc-5c4c3C2=O)NC(=O)/C(C)=C\C=C\[C@H](C)[C@H](O)[C@@H](C)[C@@H](O)[C@@H](C)[C@H](O)[C@@H]1C [Compound 39]	2 µg/mL (≈ 2.33 µM)	>8 µg/mL	0.001 µg/mL (≈ 0.00117 µM)	0.03 µg/mL (≈ 0.035 µM)	0.25 µg/mL (≈ 0.292 µM)
CC[C@@H]1CN(c2cc(O)c3nc4c5c6c7c(C)c(O)c5c(=O)c(c-4oc3c2)NC(=O)/C(C)=C\C=C\[C@H](C)[C@H](O)[C@@H](C)[C@@H](O)[C@@H](C)[C@H](O)[C@H](C)[C@@H](OC)/C=C/O[C@@](C)(O7)C6=O)C[C@H](CC)N1 [Compound 91]	0.12 µg/mL (≈ 0.133 µM)	4 µg/mL (≈ 4.45 µM)	0.0005 µg/mL (≈ 0.000556 µM)	0.03 µg/mL (≈ 0.0334 µM)	0.25 µg/mL (≈ 0.278 µM)
CO[C@H]1/C=C/O[C@@]2(C)Oc3c(C)c(O)c4c(=O)c(c5oc6cc(N7CCC(F)CC7)ccc6nc-5c4c3C2=O)NC(=O)/C(C)=C\C=C\[C@H](C)[C@H](O)[C@@H](C)[C@@H](O)[C@@H](C)[C@H](O)[C@@H]1C [Compound 114]	0.5 µg/mL (≈ 0.592 µM)	8 µg/mL (≈ 9.48 µM)	0.008 µg/mL (≈ 0.00948 µM)	0.03 µg/mL (≈ 0.0355 µM)	0.12 µg/mL (≈ 0.142 µM)
CO[C@H]1/C=C/O[C@@]2(C)Oc3c(C)c(O)c4c(=O)c(c5oc6cc(N7CC[C@@H](N(C)C)C7)cc(O)c6nc-5c4c3C2=O)NC(=O)/C(C)=C\C=C\[C@H](C)[C@H](O)[C@@H](C)[C@@H](O)[C@@H](C)[C@H](OC(C)=O)[C@@H]1C [Compound 75]	0.12 µg/mL (≈ 0.131 µM)	4 µg/mL (≈ 4.38 µM)	0.00012 µg/mL (≈ 0.000131 µM)	0.002 µg/mL (≈ 0.00219 µM)	0.25 µg/mL (≈ 0.274 µM)
COC1C=COC2(C)Oc3c(C)c(O)c4c(=O)c(c5oc6cc(N7CC8CCCN(C(C)=O)C8C7)cc(O)c6nc-5c4c3C2=O)NC(=O)C(C)=CC=CC(C)C(O)C(C)C(O)C(C)C(OC(C)=O)C1C (centres unmarked) [Compound 149]	1 µg/mL (≈ 1.03 µM)	>8 µg/mL	0.002 µg/mL (≈ 0.00207 µM)	0.008 µg/mL (≈ 0.00827 µM)	0.25 µg/mL (≈ 0.259 µM)
CO[C@H]1/C=C/O[C@@]2(C)Oc3c(C)c(O)c4c(=O)c(c5oc6cc(N7CCC(NC(=O)SC)CC7)cc(O)c6nc-5c4c3C2=O)NC(=O)/C(C)=C\C=C\[C@H](C)[C@H](O)[C@@H](C)[C@@H](O)[C@@H](C)[C@H](OC(C)=O)[C@@H]1C [Compound 45]	4 µg/mL (≈ 4.11 µM)	8 µg/mL (≈ 8.22 µM)	0.001 µg/mL (≈ 0.00103 µM)	0.015 µg/mL (≈ 0.0154 µM)	0.5 µg/mL (≈ 0.514 µM)
CO[C@H]1/C=C/O[C@@]2(C)Oc3c(C)c(O)c4c(=O)c(c5oc6cc(N7CCC(C(N)=O)CC7)cc(O)c6nc-5c4c3C2=O)NC(=O)/C(C)=C\C=C\[C@H](C)[C@H](O)[C@@H](C)[C@@H](O)[C@@H](C)[C@H](O)[C@@H]1C [Compound 112]	1 µg/mL (≈ 1.13 µM)	>8 µg/mL	0.002 µg/mL (≈ 0.00226 µM)	0.03 µg/mL (≈ 0.0339 µM)	0.25 µg/mL (≈ 0.282 µM)
CCOC(=O)NC1CCN(c2ccc3nc4c5c6c7c(C)c(O)c5c(=O)c(c-4n(C)c3c2)NC(=O)/C(C)=C\C=C\[C@H](C)[C@H](O)[C@@H](C)[C@@H](O)[C@@H](C)[C@H](O)[C@H](C)[C@@H](OC)/C=C/O[C@@](C)(O7)C6=O)CC1 [Compound 31]	0.25 µg/mL (≈ 0.27 µM)	8 µg/mL (≈ 8.64 µM)	0.0005 µg/mL (≈ 0.00054 µM)	0.03 µg/mL (≈ 0.0324 µM)	0.25 µg/mL (≈ 0.27 µM)
COC1C=COC2(C)Oc3c(C)c(O)c4c(=O)c(c5oc6cc(N7CC8CCCNC8C7)cc(O)c6nc-5c4c3C2=O)NC(=O)C(C)=CC=CC(C)C(O)C(C)C(O)C(C)C(O)C1C (centres unmarked) [Compound 15]	0.25 µg/mL (≈ 0.283 µM)	>8 µg/mL	0.002 µg/mL (≈ 0.00226 µM)	0.03 µg/mL (≈ 0.034 µM)	1 µg/mL (≈ 1.13 µM)
CO[C@H]1/C=C/O[C@@]2(C)Oc3c(C)c(O)c4c(=O)c(c5oc6cc(N7C[C@@H](C)N[C@@H](C)C7)cc(O)c6nc-5c4c3C2=O)NC(=O)/C(C)=C\C=C\[C@H](C)[C@H](O)[C@@H](C)[C@@H](O)[C@@H](C)[C@H](O)[C@@H]1C [Compound 90]	0.06 µg/mL (≈ 0.0689 µM)	4 µg/mL (≈ 4.59 µM)	0.0005 µg/mL (≈ 0.000574 µM)	0.008 µg/mL (≈ 0.00918 µM)	0.25 µg/mL (≈ 0.287 µM)
CO[C@H]1/C=C/O[C@@]2(C)Oc3c(C)c(O)c4c(=O)c(c5oc6cc(N7CCN(C8CCN(C)CC8)CC7)cc(O)c6nc-5c4c3C2=O)NC(=O)/C(C)=C\C=C\[C@H](C)[C@H](O)[C@@H](C)[C@@H](O)[C@@H](C)[C@H](O)[C@@H]1C [Compound 98]	0.5 µg/mL (≈ 0.532 µM)	>8 µg/mL	0.002 µg/mL (≈ 0.00213 µM)	0.015 µg/mL (≈ 0.016 µM)	1 µg/mL (≈ 1.06 µM)
